{
  "source": "patent US20200247855A1",
  "about": "“THERAPY AND DIAGNOSTICS” (OXFORD UNIVERSITY INNOVATION LIMITED, priority 2017, published 2020)",
  "key": {"CCL8": {"biological_target": "T1, CCL8 (Homo sapiens, UniProt P80075)", "T1 construct": "SUMO (in-house protein only) (cleaved yes); made in house; host or cells: Escherichia coli RosettaGami 2 (DE3)", "T1 sequence (P80075 24-99)": "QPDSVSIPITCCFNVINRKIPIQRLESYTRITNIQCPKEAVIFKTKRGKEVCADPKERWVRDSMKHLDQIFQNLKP", "assay": "Fluorescence polarisation (anisotropy) assay", "format": "binding", "details": "fluorescence polarisation displacement assay"}, "CCL8 homodimer": {"biological_target": "T2, CCL8 homodimer (Homo sapiens, UniProt P80075)", "T2 construct": "purchased Peprotech (UK)", "T2 sequence (P80075 24-99)": "T1 sequence (P80075 24-99)", "assay": "Native mass spectrometry of CCL8 with peptide", "details": "1:1 CCL8 monomer:BK1.1", "experimental": "Mid panel: In-solution dissociation of CCL8 dimer and further binding of CCL8 to one and two BK-1. Confirmation of CCL8/BK-1 complex by HCD gas-phase dissociation of isolated precursor ions: Bottom panel, left: 2217 m/z corresponding to CCL8/BK-1 (1:1) and Bottom panel, […]: 2555 m/z corresponding to CCL8/BK-1 (1:2). Buffers contained up to 0.5% DMSO. All analyses were performed in triplicate.\nSamples were analysed using a modified Q-Exactive mass spectrometer (Thermo Fisher Scientific) for high-mass range measurements (Gault, J. et al., Nature methods [2016]). CCL8 was buffered exchanged into 200 mM ammonium acetate solution (pH=6.5). […] In all cases no more than 0.5% DMSO was present in the final mixture, and a control sample of CCL8 homodimer containing 0.5% DMSO was also analysed. Instrumental parameters were set to: capillary voltage of 1.2 KV, source temperature of 50° C. and 60 V of source induced dissociation (SID). Gas phase dissociation was carried out by applying 35 and 55 V of higher-energy collisional dissociation (HCD) to the most intense charge state after isolation (25 m/z window). Spectra was acquired using a mass resolution of 60,000 for both precursor and dissociated product ions. All measurements were done in triplicates."}},
  "note": "No end group written: not given here.",
  "data": [
    {"substance": "EDEDYEDFFKPVTAYF-NH2 [BK1.1]", "values": [
      {"measurement": "Displacement of FITC-labelled peptide from CCL8 by unlabelled peptide", "setting": "CCL8", "result": "indicate its binding"},
      {"measurement": "Displacement of FITC-labelled peptide from CCL8 by unlabelled peptide", "setting": "CCL8; listed as P672_PEP", "result": "able to displace labelled peptide bound to chemokine"},
      {"measurement": "Effect on CCL8 homodimerization", "setting": "CCL8 homodimer", "result": "disrupt CCL8 homodimerization"}
    ]}
  ]
}
